Here are results for 18 compounds from patent US20230143612A1 (Arbutus Biopharma Corporation, priority 2020, published 2023).

SMILES strings stand for the structures.

Sequence of PD-L1 His protein / PD-1 Fc protein (Q9NZQ7 19-238 limits assumed): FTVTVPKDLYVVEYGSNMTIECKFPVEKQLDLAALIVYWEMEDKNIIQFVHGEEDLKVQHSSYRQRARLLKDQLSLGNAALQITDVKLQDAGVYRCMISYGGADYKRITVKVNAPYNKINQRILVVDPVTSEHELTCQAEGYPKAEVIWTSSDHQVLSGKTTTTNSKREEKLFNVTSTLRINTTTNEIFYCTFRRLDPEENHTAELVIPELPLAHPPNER

The target of the assay is PD-L1 His protein / PD-1 Fc protein (Homo sapiens, UniProt Q9NZQ7). Briefly: HTRF Assay (PD-1/PD-L1 interaction). As to conditions: PD-L1 His 6 nM, PD-1 Fc 6 nM. The class given is binding. How it is done:
PD-L1 His protein was prepared and added at the final concentration of 6 nM in the White opaque 384 well plate (Corning cat #3824BC). PD-L1 small molecule inhibitors were diluted by 3-fold starting from 20 μM and a final concentration of 0.001 μM and added to the well. PD-1 Fc protein was added at the final concentration of 6 nM. PD-L1 His protein, PD-L1 small molecule inhibitors, and PD1 Fc proteins were added to the well in this order, with each 5 μl volume, and were incubated for 15 minutes at room temperature. PAb anti-Human IgG-XL665 (Cisbio, cat #61HFCXLA) and Mab anti-6HIS Tb cryptate Gold (Cisbio, cat #61HI2TLA) were mixed at 6.7 nM and 0.35 nM respectively, and total 5 μl volume of mixture was added to the well and incubated at room temperature for 1 hour. The plate was read using PerkinElmer Envision plate reader and data was analyzed by Prism 6 software.
(Time-resolved FRET reads energy transfer from a long-lived donor to a nearby acceptor.)
The term IC50 denotes the concentration at which inhibition is half-maximal. Read a high IC50 as weaker potency. Consider `CN1CCC(NCCO)c2ccc(-c3cccc(-c4cccc(-c5ccc6c(n5)N(C)CCC6NCCO)c4Cl)c3Cl)nc21` (mixture of isomers) [Example 34, 2,2′-(((2,2′-Dichloro-[1,1′-biphenyl]-3,3′-diyl)bis(1-methyl-1,2,3,4-tetrahydro-1,8-naphthyridine-7,4-diyl))bis(azanediyl))bis(ethan-1-ol)], for which the midpoint of inhibition, the IC50, lay at 4.8 nM.

Compound `Cc1c(-c2ccn3c(=O)c(CNC[C@@H]4CCC(=O)N4)cnc3c2)cccc1-c1cccc(-c2ccc3c(c2)CC(N)C3)c1Cl` (mixture of isomers) [Example 40, 8-(3′-(2-Amino-2,3-dihydro-1H-inden-5-yl)-2′-chloro-2-methyl-[1,1′-biphenyl]-3-yl)-3-(((((S)-5-oxopyrrolidin-2-yl)methyl)amino)methyl)-4H-pyrido[1,2-a]pyrimidin-4-one] returned an IC50 of 61 nM.

On to `Cc1c(-c2ccc3c(c2)CC(N)C3)cccc1-c1cccc(-c2ccn3c(=O)c(CNC[C@@H]4CCC(=O)N4)cnc3c2)c1C` (mixture of isomers) [Example 41, 8-(3′-(2-Amino-2,3-dihydro-1H-inden-5-yl)-2,2′-dimethyl-[1,1′-biphenyl]-3-yl)-3-(((((S)-5-oxopyrrolidin-2-yl)methyl)amino)methyl)-4H-pyrido[1,2-a]pyrimidin-4-one], for which the IC50 came out at 93 nM.

`Cc1c(-c2ccn3c(=O)c(CNC[C@@H]4CCC(=O)N4)cnc3c2)cccc1-c1cccc(-c2ccc3c(c2)CC(NC(=O)CN)C3)c1Cl` (mixture of isomers) [Example 43, 2-Amino-N-(5-(2-chloro-2′-methyl-3′-(4-oxo-3-(((((S)-5-oxopyrrolidin-2-yl)methyl)amino)methyl)-4H-pyrido[1,2-a]pyrimidin-8-yl)-[1,1′-biphenyl]-3-yl)-2,3-dihydro-1H-inden-2-yl)acetamide] registered an IC50 of 270 nM.

For `Cc1c(-c2ccn3c(=O)c(CNC[C@@H]4CCC(=O)N4)cnc3c2)cccc1-c1cccc(-c2ccc3c(c2)CC(NC(=O)[C@@H](N)CO)C3)c1Cl` (mixture of isomers) [Example 45, (2S)-2-Amino-N-(5-(2-chloro-2′-methyl-3′-(4-oxo-3-(((((S)-5-oxopyrrolidin-2-yl)methyl)amino)methyl)-4H-pyrido[1,2-a]pyrimidin-8-yl)-[1,1′-biphenyl]-3-yl)-2,3-dihydro-1H-inden-2-yl)-3-hydroxypropanamide], the IC50 stood at 680 nM.

`Cc1c(-c2ccn3c(=O)c(CNC[C@@H]4CCC(=O)N4)cnc3c2)cccc1-c1cccc(-c2ccc3c(c2)CC(NC(=O)[C@@H]2CCCN2)C3)c1Cl` (mixture of isomers) [Example 46, (2S)—N-(5-(2-Chloro-2′-methyl-3′-(4-oxo-3-(((((S)-5-oxopyrrolidin-2-yl)methyl)amino)methyl)-4H-pyrido[1,2-a]pyrimidin-8-yl)-[1,1′-biphenyl]-3-yl)-2,3-dihydro-1H-inden-2-yl)pyrrolidine-2-carboxamide] came in with an IC50 of 520 nM.

Regarding `COc1nc(-c2cccc(-c3cccc(-c4ccn5c(=O)c(CNC6CNC(=O)C6)cnc5c4)c3Cl)c2Cl)ccc1CNC1CNC(=O)C1` (mixture of isomers) [Example 63, 8-(2,2′-Dichloro-3′-(6-methoxy-5-(((5-oxopyrrolidin-3-yl)amino)methyl)pyridin-2-yl)-[1,1′-biphenyl]-3-yl)-3-(((5-oxopyrrolidin-3-yl)amino)methyl)-4H-pyrido[1,2-a]pyrimidin-4-one], the IC50 stood at 1.5 nM.

In turn, `COc1nc(-c2cccc(-c3cccc(-c4ccn5c(=O)c(C6=NCC(C(=O)O)N6)cnc5c4)c3Cl)c2Cl)ccc1CNC[C@@H]1CCC(=O)N1` (mixture of isomers) [Example 179, 2-(8-(2,2′-Dichloro-3′-(6-methoxy-5-(((((S)-5-oxopyrrolidin-2-yl)methyl)amino)methyl)pyridin-2-yl)-[1,1′-biphenyl]-3-yl)-4-oxo-4H-pyrido[1,2-a]pyrimidin-3-yl)-4,5-dihydro-1H-imidazole-5-carboxylic acid] registered an IC50 of 0.1 nM.

Consider `COc1nc(-c2cccc(-c3cccc(-c4ccn5c(=O)c(CNC[C@@H]6CCC(=O)N6)cnc5c4)c3Cl)c2Cl)ccc1C1=NCCC(C(=O)O)N1` (mixture of isomers) [Example 180, 2-(6-(2,2′-Dichloro-3′-(4-oxo-3-(((((S)-5-oxopyrrolidin-2-yl)methyl)amino)methyl)-4H-pyrido[1,2-a]pyrimidin-8-yl)-[1,1′-biphenyl]-3-yl)-2-methoxypyridin-3-yl)-3,4,5,6-tetrahydropyrimidine-4-carboxylic acid], for which the IC50 was determined as 0.9 nM.

Compound `COc1nc(-c2cccc(-c3cccc(-c4ccn5c(=O)c(C6=NCCC(C(=O)O)N6)cnc5c4)c3Cl)c2Cl)ccc1CNC[C@@H]1CCC(=O)N1` (mixture of isomers) [Example 199, 2-(8-(2,2′-Dichloro-3′-(6-methoxy-5-(((((S)-5-oxopyrrolidin-2-yl)methyl)amino)methyl)pyridin-2-yl)-[1,1′-biphenyl]-3-yl)-4-oxo-4H-pyrido[1,2-a]pyrimidin-3-yl)-3,4,5,6-tetrahydropyrimidine-4-carboxylic acid] came in with an IC50 of 0.1 nM.

The compound `COc1nc(-c2cccc(-c3cccc(-c4ccn5c(=O)c(CNCC6CCCC(=O)N6)cnc5c4)c3Cl)c2Cl)ccc1CNC[C@@H]1CCC(=O)N1` (mixture of isomers) [Example 206, 8-(2,2′-Dichloro-3′-(6-methoxy-5-(((((S)-5-oxopyrrolidin-2-yl)methyl)amino)methyl)pyridin-2-yl)-[1,1′-biphenyl]-3-yl)-3-((((6-oxopiperidin-2-yl)methyl)amino)methyl)-4H-pyrido[1,2-a]pyrimidin-4-one] showed an IC50 of 14 nM.

The compound `COc1nc(CC2CCc3c(-c4cccc(-c5ccn6c(=O)c(CNC[C@@H]7CCC(=O)N7)cnc6c5)c4Cl)cccc32)c(Cl)cc1CNC[C@@H]1CCC(=O)N1` (mixture of isomers) [Example 213, 8-(2-chloro-3-(1-((3-chloro-6-methoxy-5-(((((S)-5-oxopyrrolidin-2-yl)methyl)amino)methyl)pyridin-2-yl)methyl)-2,3-dihydro-1H-inden-4-yl)phenyl)-3-(((((S)-5-oxopyrrolidin-2-yl)methyl)amino)methyl)-4H-pyrido[1,2-a]pyrimidin-4-one] came in with an IC50 of 3700 nM.

Consider `COc1nc(-c2cccc(-c3cccc(-c4ccn5c(=O)c(CNCC6CC(F)(F)C(=O)N6)cnc5c4)c3Cl)c2Cl)ccc1CNC[C@@H]1CCC(=O)N1` (mixture of isomers) [Example 253, 8-[2-Chloro-3-[2-chloro-3-[6-methoxy-5-[[[(2S)-5-oxopyrrolidin-2-yl]methylamino]methyl]-2-pyridyl]phenyl]phenyl]-3-[[(4,4-difluoro-5-oxo-pyrrolidin-2-yl)methylamino]methyl]pyrido[1,2-a]pyrimidin-4-one], for which the IC50 turned out to be 5.7 nM.

For the compound `COc1nc(-c2cccc(-c3cccc(-c4ccn5c(=O)c(CN6CCC6C(N)=O)cnc5c4)c3Cl)c2Cl)ccc1CNC[C@@H]1CCC(=O)N1` (mixture of isomers) [Example 259, 1-[[8-[2-Chloro-3-[2-chloro-3-[6-methoxy-5-[[[(2S)-5-oxopyrrolidin-2-yl]methylamino]methyl]-2-pyridyl]phenyl]phenyl]-4-oxo-pyrido[1,2-a]pyrimidin-3-yl]methyl]azetidine-2-carboxamide], the IC50 stood at 2.3 nM.

`COc1nc(-c2cccc(-c3cccc(-c4ccn5c(=O)c(CNCC(O)C6CC6)cnc5c4)c3Cl)c2Cl)ccc1CNC[C@@H]1CCC(=O)N1` (mixture of isomers) [Example 274, 3-(((2-Cyclopropyl-2-hydroxyethyl)amino)methyl)-8-(2,2′-dichloro-3′-(6-methoxy-5-(((((S)-5-oxopyrrolidin-2-yl)methyl)amino)methyl)pyridin-2-yl)-[1,1′-biphenyl]-3-yl)-4H-pyrido[1,2-a]pyrimidin-4-one] gave an IC50 of 65 nM.

`COc1nc(-c2cccc(-c3cccc(-c4ccn5c(=O)c(CNCC(C)(O)C6CC6)cnc5c4)c3Cl)c2Cl)ccc1CNC[C@@H]1CCC(=O)N1` (mixture of isomers) [Example 280, 3-(((2-cyclopropyl-2-hydroxypropyl)amino)methyl)-8-(2,2′-dichloro-3′-(6-methoxy-5-(((((S)-5-oxopyrrolidin-2-yl)methyl)amino)methyl)pyridin-2-yl)-[1,1′-biphenyl]-3-yl)-4H-pyrido[1,2-a]pyrimidin-4-one] showed an IC50 of 37 nM.

`COc1nc(-c2cccc(-c3cccc(-c4ccc5c(c4)OCCC5NC[C@@H]4CCC(=O)N4)c3Cl)c2Cl)ccc1CNC[C@@H]1CCC(=O)N1` (mixture of isomers) [Example 326, (5S)-5-((((6-(2,2′-Dichloro-3′-(4-((((S)-5-oxopyrrolidin-2-yl)methyl)amino)chroman-7-yl)-[1,1′-biphenyl]-3-yl)-2-methoxypyridin-3-yl)methyl)amino)methyl)pyrrolidin-2-one] came in with an IC50 of 24 nM.

As to `COc1nc(-c2cccc(-c3cccc(-c4ccc5c(n4)N(C)CCC5NC[C@@H]4CCC(=O)N4)c3Cl)c2Cl)ccc1CNC[C@@H]1CCC(=O)N1` (mixture of isomers) [Example 51, (5S)-5-(((7-(2,2′-Dichloro-3′-(6-methoxy-5-(((((S)-5-oxopyrrolidin-2-yl)methyl)amino)methyl)pyridin-2-yl)-[1,1′-biphenyl]-3-yl)-1-methyl-1,2,3,4-tetrahydro-1,8-naphthyridin-4-yl)amino)methyl)pyrrolidin-2-one], the IC50 came out at 2.9 nM.
